Holding throughout (type): cell-based
Test [1] deals with ST258/KPC-35 mutant IMI 2.1. Briefly: MIC, broth microdilution. The note with it: Klebsiella pneumoniae. Background: Broth dilution looks for growth in wells or tubes with falling amounts of substance.
Test [2] has as its system ST258/KPC-35 mutant IMI 3.2. The test is described as follows: MIC, broth microdilution. Conditions: Klebsiella pneumoniae.
The subject of test [3] is ST512/KPC-31 mutant IMI 2.1. Briefly: MIC, broth microdilution. Conditions: Klebsiella pneumoniae.
The subject of test [4] is ST512/KPC-31 mutant IMI 1.2. Briefly: MIC, broth microdilution. The note with it: Klebsiella pneumoniae.
Test [5] deals with K. pneumoniae ST258/KPC-35 (KPC-2 L169P) parental clinical isolate. Briefly: MIC, broth microdilution. The note with it: Klebsiella pneumoniae.
Test [6] relates to ST512/KPC-31 mutant IMI 2.2. The test is described as follows: MIC, broth microdilution. The note with it: Klebsiella pneumoniae.
Test [7] has as its system ST512/KPC-31 mutant IMI 1.1. The test is described as follows: MIC, broth microdilution. The note with it: Klebsiella pneumoniae.
Test [8] relates to ST258/KPC-35 mutant IMI 2.2. The test is described as follows: MIC, broth microdilution. The note with it: Klebsiella pneumoniae.
Test [9] relates to ST258/KPC-35 mutant IMI 1.1. The test is described as follows: MIC, broth microdilution. The note with it: Klebsiella pneumoniae.
Test [10] concerns ST512/KPC-31 mutant IMI 3.1. The test is described as follows: MIC, broth microdilution. Conditions: Klebsiella pneumoniae.
Test [11] relates to ST258/KPC-35 mutant IMI 3.1. The test is described as follows: MIC, broth microdilution. The note with it: Klebsiella pneumoniae.
Test [12] relates to ST512/KPC-31 mutant IMI 3.2. Briefly: MIC, broth microdilution. The note with it: Klebsiella pneumoniae.
In test [13] the test system is ST258/KPC-35 mutant IMI 1.2. Briefly: MIC, broth microdilution. The note with it: Klebsiella pneumoniae.
For test [14], the system named is K. pneumoniae ST512/KPC-31 (KPC-3 D179Y) parental clinical isolate. The test is described as follows: MIC, broth microdilution. The note with it: Klebsiella pneumoniae.
For test [15], the system named is E. coli HB4 KPC-35 (KPC-2 L169P). The test is described as follows: MIC of recombinant strains. The note with it: Escherichia coli; E. coli HB4 expressing KPC-35 (KPC-2 L169P) in pUCP24. How it is done:
(§1) 14.0 (www.eucast.org/clinical_breakpoints).
(§2) Recombinant strains were selected in 10 mg/L of gentamicin-LB agar plates. The β-lactam MICs were determined for the transformants according to the above-described methodology.

Test [16] relates to E. coli HB4 KPC-2 L169T. Briefly: MIC of recombinant strains. The note with it: Escherichia coli, HB4KPC2L169T; E. coli HB4 expressing KPC-2 L169T in pUCP24. On the procedure: as §1, §2
In test [17] the test system is E. coli HB4 KPC-31 (KPC-3 D179Y). Briefly: MIC of recombinant strains. The note with it: Escherichia coli; E. coli HB4 expressing KPC-31 (KPC-3 D179Y) in pUCP24. On the procedure:
as §1, §2

The test system of test [18] is E. coli HB4 KPC-3. Briefly: MIC of recombinant strains. Conditions: Escherichia coli, HB4KPC3; E. coli HB4 expressing KPC-3 in pUCP24. On the procedure:
as §1, §2

Test [19] deals with E. coli HB4. The test is described as follows: MIC of recombinant strains. Conditions: Escherichia coli; E. coli HB4 (OmpC- and OmpF-deficient), no KPC. How it is done:
as §1, §2

Test [20] relates to E. coli HB4 KPC-2. Briefly: MIC of recombinant strains. The note with it: Escherichia coli, HB4KPC2; E. coli HB4 expressing KPC-2 in pUCP24. How it is done: as §1, §2
Test [21] deals with E. coli HB4 KPC-2 L169A. Briefly: MIC of recombinant strains. The note with it: Escherichia coli, HB4KPC2L169A; E. coli HB4 expressing KPC-2 L169A in pUCP24. How it is done:
as §1, §2

Test [22] relates to E. coli HB4 KPC-3 D179N. Briefly: MIC of recombinant strains. Conditions: Escherichia coli, HB4KPC3D179N; E. coli HB4 expressing KPC-3 D179N in pUCP24. On the procedure:
as §1, §2

In brackets after ≈: the same amount, converted by molar mass. A value given as a limit tells only on which side of the number the result lay.

A word on the MIC: it is the smallest concentration in the dilution series that meets the test's criterion for growth inhibition. In the case of `CC(C)(O/N=C(\C(=O)N[C@@H]1C(=O)N2C(C(=O)[O-])=C(C[n+]3ccccc3)CS[C@H]12)c1csc(N)n1)C(=O)O` [CAZ, ceftazidime], the MIC is 128 µg/mL (≈ 234 µM) in test [1]; 128 µg/mL (≈ 234 µM) in test [2]; greater than 256 µg/mL in test [3]; greater than 256 µg/mL in [4]; greater than 256 µg/mL in [5]; greater than 256 µg/mL in test [6]. Further, the MIC in [7] is greater than 256 µg/mL; in test [8], 128 µg/mL (≈ 234 µM); in test [9] it was 256 µg/mL (≈ 468 µM); in test [10], greater than 256 µg/mL; in test [11], 64 µg/mL (≈ 117 µM); in test [12] it was greater than 256 µg/mL. Moreover, the MIC in test [13] was 256 µg/mL (≈ 468 µM); in test [14], greater than 256 µg/mL; in [15], greater than 64 µg/mL; in test [16], greater than 64 µg/mL; in [17], greater than 64 µg/mL; in test [18], greater than 64 µg/mL. Moreover, the MIC in test [19] is 1 µg/mL; in test [20], greater than 64 µg/mL; in test [21], greater than 64 µg/mL; in test [22], greater than 64 µg/mL.
Regarding `NC[C@H]1O[C@H](O[C@H]2[C@H](O)[C@@H](O[C@H]3O[C@H](CO)[C@@H](O)[C@H](N)[C@H]3O)[C@H](N)C[C@@H]2N)[C@H](N)C[C@@H]1O` [TOB, tobramycin], the minimum inhibitory concentration (MIC) in test [1], in [2], in [3], in test [4], in [5] and in [6] was greater than 8 µg/mL each time. In addition, the minimal inhibitory concentration (MIC) in test [7], in test [8], in test [9], in test [10], in test [11] and in [12] was greater than 8 µg/mL throughout. In addition, the MIC in test [13] and in [14] was greater than 8 µg/mL in each case.
For the compound `C[C@H]1[C@H](NC(=O)/C(=N\OC(C)(C)C(=O)O)c2csc(N)n2)C(=O)N1S(=O)(=O)O` [AZT, aztreonam], the MIC in test [1], in [2], in [3], in test [4], in [6] and in test [7] was greater than 16 µg/mL throughout. The MIC in [8], in test [9], in test [10], in test [11], in test [12] and in test [13] was greater than 16 µg/mL throughout. For the same compound, the MIC is 16 µg/mL in test [15]; 128 µg/mL in [16]; 4 µg/mL in [17]; 256 µg/mL in test [18]; no more than 0.5 µg/mL in test [19]; 512 µg/mL in test [20]. Also, the MIC in test [21] is 64 µg/mL; in test [22] it was 8 µg/mL.
In the case of `NCC[C@H](O)C(=O)N[C@@H]1C[C@H](N)[C@@H](O[C@H]2O[C@H](CN)[C@@H](O)[C@H](O)[C@H]2O)[C@H](O)[C@H]1O[C@H]1O[C@H](CO)[C@@H](O)[C@H](N)[C@H]1O` [AMI, amikacin], the MIC in test [1], in [2], in [3], in test [4], in [5] and in test [6] was greater than 32 µg/mL in each case. Further, the MIC in test [7], in test [8], in test [9], in test [10], in test [11] and in test [12] was greater than 32 µg/mL in each case. The MIC in [13] and in [14] was greater than 32 µg/mL each time.
Turning to `C[C@@H](O)[C@H]1C(=O)N2C(C(=O)O)=C(S[C@@H]3CN[C@H](C(=O)Nc4cccc(C(=O)O)c4)C3)[C@H](C)[C@H]12` [ETP, ertapenem], the MIC in test [1], in [2], in test [3], in test [4], in [5] and in test [6] was greater than 8 µg/mL each time. Besides, the minimal inhibitory concentration (MIC) in [7], in test [8], in [9], in test [10], in test [11] and in test [12] was greater than 8 µg/mL each time. Moreover, the MIC in test [13] and in [14] was greater than 8 µg/mL in each case.
As to `C[C@H]1COc2c(N3CCN(C)CC3)c(F)cc3c(=O)c(C(=O)O)cn1c23` [LEV, levofloxacin], the MIC in test [1], in test [2], in test [3], in [4], in [5] and in [6] was greater than 8 µg/mL in each case. Moreover, the MIC in test [7], in test [8], in [9], in test [10], in [11] and in test [12] was greater than 8 µg/mL each time. Moreover, the MIC in test [13] and in test [14] was greater than 8 µg/mL throughout.
Consider `C[C@@H](O)[C@H]1C(=O)N2C(C(=O)O)=C(S[C@@H]3CN[C@H](C(=O)N(C)C)C3)[C@H](C)[C@H]12` [MEM, meropenem], for which the minimal inhibitory concentration (MIC) in [1] is greater than 64 µg/mL; in test [2], 64 µg/mL (≈ 167 µM); in test [3], greater than 64 µg/mL; in test [4], greater than 64 µg/mL; in test [5], 4 µg/mL (≈ 10.4 µM); in test [6], greater than 64 µg/mL. In addition, the MIC in test [7] was greater than 64 µg/mL; in test [8] it was greater than 64 µg/mL; in [9] it was greater than 64 µg/mL; in [10], 32 µg/mL (≈ 83.4 µM); in [11], 64 µg/mL (≈ 167 µM); in test [12], 32 µg/mL (≈ 83.4 µM). Moreover, the MIC was greater than 64 µg/mL in test [13]; 4 µg/mL (≈ 10.4 µM) in test [14]; 2 µg/mL in test [15]; 16 µg/mL in test [16]; 0.5 µg/mL in test [17]; greater than 64 µg/mL in test [18]. The MIC in test [19] was no more than 0.06 µg/mL; in [20], greater than 64 µg/mL; in test [21], 16 µg/mL; in test [22], 0.25 µg/mL.
In the case of `CO/N=C(\C(=O)N[C@@H]1C(=O)N2C(C(=O)[O-])=C(C[N+]3(C)CCCC3)CS[C@H]12)c1csc(N)n1` [FEP, cefepime], the MIC in [1], in test [2], in test [3], in test [4], in test [6] and in [7] was greater than 16 µg/mL in each case. Moreover, the MIC in test [8], in test [9], in [10], in test [11], in test [12] and in test [13] was greater than 16 µg/mL in each case. Moreover, the MIC was 64 µg/mL in test [15]; 128 µg/mL in test [16]; 32 µg/mL in test [17]; 128 µg/mL in test [18]; no more than 0.5 µg/mL in test [19]; 256 µg/mL in test [20]. In addition, the MIC in test [21] was 64 µg/mL; in [22] it was 16 µg/mL.
For `CNC(C)C1CCC(N)C(OC2C(N)CC(N)C(OC3OCC(C)(O)C(NC)C3O)C2O)O1` (stereo not shown) [GEN, gentamicin], the MIC in test [1] is 4 µg/mL (≈ 8.38 µM); in [2], 4 µg/mL (≈ 8.38 µM); in test [3], 4 µg/mL (≈ 8.38 µM); in test [4], 8 µg/mL (≈ 16.8 µM); in [5], no more than 2 µg/mL; in [6] it was 8 µg/mL (≈ 16.8 µM). Moreover, the MIC in [7], in test [8], in test [9], in [10], in [11] and in test [12] was 4 µg/mL (≈ 8.38 µM) each time. Moreover, the MIC in test [13] and in [14] was 4 µg/mL (≈ 8.38 µM) each time.
